Assay results taken from patent US20060160701A1, “Natural herbicidal agent containing momilactones A and B identified in and isolated from rice hulls” (Konkuk University Industrial Cooperation Corp., priority 2005, published 2006).

Legend:
[1] = tested on: Leptochloa chinensis (L.) Ness; assay: Germination assay in culture tube (GACT), Leptochloa chinensis seeds; format: in vivo; settings: II: Leptochloa chinensis (L.) Ness, seven days
Protocol: (§1) The momilactones thus isolated and purified according to the method were dissolved in acetone containing a non-ionic surfactant, Tween-20, and diluted with ½ hunter medium, thus generating a growth/germination inhibition solution. The solution contained acetone and Tween-20 in final concentrations of 1% and 0.01% by weight, respectively. The acetone and Tween-20 were found not to cause growth or germination inhibition.
(§2) Seeds of three weed species, Leptochloa chinensis L., Amaranthus retroflexus L. and Cyperus difformis L., which were collected on October 2002 and stored at −35° C. after floating matter was removed using distilled water, were used in this test.
(§3) The weed seeds were surface-sterilized in a 1:10 (v/v) dilution of an aqueous hypochlorite solution for 10 min and washed with distilled water several times according to a method described by Choi et al. (CHOI, J. S. et al., Korean J. Weed Sci., 22, 339-413, 2002).
(§4) 650 mg of sea sand was placed into disposable culture tubes (12×75 mm), which contained the growth/germination inhibition solution at concentrations of 4, 20, 100 and 1000 ppm. 2 mg of each seed of the three weed species was added to the tubes, and was then incubated in a growth chamber (25° C., 12 h photoperiod, 20 μmol/m^2s).
(§5) After seven days, percentage germination of the weed seeds was determined. Using the percentage germination, the inhibitory effects of the growth/germination inhibition solution on germination and fresh weight of the seeds were evaluated. • Germination inhibition (%)=[(control−test group)/control]×100 • Fresh weight inhibition (%)=[(control−test group)/control]×100

Cyperus difformis L. = assay: Germination assay in culture tube (GACT), Cyperus difformis seeds; format: in vivo; settings: I: Cyperus difformis L., seven days
Protocol: as §1, §2, §3, §4, §5

[2] = tested on: Amaranthus retroflexus L.; assay: Germination assay in culture tube (GACT), Amaranthus retroflexus seeds; format: in vivo; settings: III: Amaranthus retroflexus L., seven days
Protocol: as §1, §2, §3, §4, §5

[3] = tested on: duckweed (Lemna paucicostata Hegelm 381); assay: Bioactivity assay using duckweed (Lemna assay); format: in vivo; settings: 5 days; for Visual injury symptoms (%): scale 0 (no effect) to 100 (complete death)
Protocol: as §1
After 2 ml of the growth/germination inhibition solution, prepared in Example, was aliquotted in triplets into a 24-well plate, one duckweed plant having four fronds was transplanted into each well. The plate was incubated in a growth chamber (26° C., 14 h photoperiod, 50 μmol/m^2s) for 5 days. Herbicidal activity was determined by visual scoring and by measuring the chlorophyll content.
The chlorophyll was extracted in DMSO (dimethyl sulfoxide), and absorbance was measured using a UV-VIS spectrophotometer. The chlorophyll content was determined based on the absorbance data according to a method described by Hiscox and Israelstam (Hiscox, J. D. and Israelstam, G. F., Can. J. Bot., 57, 1332-1334, 1979).
The inhibitory effects of the compounds on chlorophyll content in duckweed were expressed as a percentage (%) of the corresponding values obtained for a control.
Thus, a minus value indicates growth stimulation, and a plus value indicates growth inhibition. • Chlorophyll content (μg/ml)=2.367×(absorbance)^2+6.299×absorbance+0.169 (r=0.999) • Inhibition of chlorophyll content (%)=[(control-test group)/control]×100

rice seedlings = settings: Kato-Naguchi et al., Physiologia Plantarum 115, 2002; cited from earlier work
[4] = tested on: three weed species, Leptochloa chinensis L., Amaranthus retroflexus L. and Cyperus difformis L.; assay: Germination assay in culture tube (GACT), three weed species taken together; format: in vivo; settings: 20 ppm
Protocol: as §1, §2
The weed seeds were surface-sterilized in a 1:10 (v/v) dilution of an aqueous hypochlorite solution for 10 min and washed with distilled water several times according to a method described by Choi et al. (CHOI, J. S. et al., Korean J. Weed Sci., 22, 339-413, 2002). […]
as §5

lettuce seeds = settings: derivatives of momilactones A and B; Kato et al., Phytochemistry 16, 1977; cited from earlier work
rice roots = settings: derivatives of momilactones A and B; Kato et al., Phytochemistry 16, 1977; cited from earlier work

Compound | Fresh weight inhibition (%) ([1]; 4 ppm) | Germination inhibition (%) ([1]; 4 ppm) | Fresh weight inhibition (%) ([1]; 20 ppm) | Germination inhibition (%) ([1]; 20 ppm) | Fresh weight inhibition (%) ([1]; 100 ppm) | Germination inhibition (%) ([1]; 100 ppm) | Fresh weight inhibition (%) ([1]; 1000 ppm) | Germination inhibition (%) ([1]; 1000 ppm) | Fresh weight inhibition (%) (Cyperus difformis L.; 4 ppm) | Germination inhibition (%) (Cyperus difformis L.; 4 ppm) | Fresh weight inhibition (%) (Cyperus difformis L.; 20 ppm) | Germination inhibition (%) (Cyperus difformis L.; 20 ppm) | Fresh weight inhibition (%) (Cyperus difformis L.; 100 ppm) | Germination inhibition (%) (Cyperus difformis L.; 100 ppm) | Fresh weight inhibition (%) (Cyperus difformis L.; 1000 ppm) | Germination inhibition (%) (Cyperus difformis L.; 1000 ppm) | Fresh weight inhibition (%) ([2]; 4 ppm) | Germination inhibition (%) ([2]; 4 ppm) | Fresh weight inhibition (%) ([2]; 20 ppm) | Germination inhibition (%) ([2]; 20 ppm) | further results
C=C[C@]1(C)CC[C@@H]2C(=C[C@H]3OC(=O)[C@@]4(C)C(=O)CC[C@@]2(C)[C@@H]34)C1 [Momilactone A] | 0 | 0 | 0 | 0 | 48.4 | 70 | 100 | 100 | 0 | 20 | 100 | 97.5 | 100 | 100 | 100 | 100 | 0 | 20 | 18.6 | 20 | Fresh weight inhibition (%) ([2]; 100 ppm): 33.3%; Germination inhibition (%) ([2]; 100 ppm): 30%; Fresh weight inhibition (%) ([2]; 1000 ppm): 100%; Germination inhibition (%) ([2]; 1000 ppm): 100%; Inhibition of chlorophyll content (%) ([3]; 1 ppm): 27.0%; Visual injury symptoms (%) ([3]; 1 ppm): 20%; Inhibition of chlorophyll content (%) ([3]; 3.3 ppm): 52.3%; Visual injury symptoms (%) ([3]; 3.3 ppm): 50%; Inhibition of chlorophyll content (%) ([3]; 10 ppm): 85.8%; Visual injury symptoms (%) ([3]; 10 ppm): 70%; Inhibition of chlorophyll content (%) ([3]; 33 ppm): 95.6%; Visual injury symptoms (%) ([3]; 33 ppm): 90%; Inhibition of chlorophyll content (%) ([3]; 100 ppm): 98.9%; Visual injury symptoms (%) ([3]; 100 ppm): 95%
C=C[C@]1(C)CC[C@@H]2C(=C[C@H]3OC(=O)[C@]4(C)[C@H]3[C@]23CC[C@@]4(O)OC3)C1 [Momilactone B] | 23.3 | 100 | 100 | 100 | 100 | 100 | 100 | 100 | 15 | 23.3 | 100 | 100 | 100 | 100 | 100 | 100 | 12.5 | 15 | 100 | 100 | inhibition of the growth of rice seedlings (rice seedlings): inhibiting the growth of rice seedlings; inhibition of germination of all tested weed species [4]: completely inhibited; inhibition of growth of all tested weed species [4]: completely inhibited; Fresh weight inhibition (%) ([2]; 100 ppm): 100%; Germination inhibition (%) ([2]; 100 ppm): 100%; Fresh weight inhibition (%) ([2]; 1000 ppm): 100%; Germination inhibition (%) ([2]; 1000 ppm): 100%; Inhibition of chlorophyll content (%) ([3]; 1 ppm): 33.9%; Visual injury symptoms (%) ([3]; 1 ppm): 20%; Inhibition of chlorophyll content (%) ([3]; 3.3 ppm): 91.9%; Visual injury symptoms (%) ([3]; 3.3 ppm): 70%; Inhibition of chlorophyll content (%) ([3]; 10 ppm): 98.3%; Visual injury symptoms (%) ([3]; 10 ppm): 98%; Inhibition of chlorophyll content (%) ([3]; 33 ppm): 100%; Visual injury symptoms (%) ([3]; 33 ppm): 100%; Visual injury symptoms (%) ([3]; 33 ppm, listed as momilactone B): complete death; Inhibition of chlorophyll content (%) ([3]; 100 ppm): 100%; Visual injury symptoms (%) ([3]; 100 ppm): 100%; Visual injury symptoms (%) ([3]; 100 ppm, listed as momilactone B): complete death
acetyl momilactone B |  |  |  |  |  |  |  |  |  |  |  |  |  |  |  |  |  |  |  |  | inhibition of the germination of lettuce seeds (lettuce seeds): strongest inhibitory activity; inhibition of the growth of rice roots (rice roots): strongest inhibitory activity
3-hydro momilactone A |  |  |  |  |  |  |  |  |  |  |  |  |  |  |  |  |  |  |  |  | inhibition of the germination of lettuce seeds (lettuce seeds): strongest inhibitory activity; inhibition of the growth of rice roots (rice roots): strongest inhibitory activity
